Test results reported in patent US6043217A, “Amide derivative of amythiamicin” (Zaidan Hojin Biseibutsu Kagaku Kenyu Kai, priority 1996, dated 2000).

Assays:
Assay type in all cases: cell-based
Details in all cases: Muller-Hinton agar medium, 37° C.
[1] = tested on: Staphylococcus aureus FDA 209P; assay: MIC, standard serial dilution method
[2] = tested on: Staphylococcus aureus Smith; assay: MIC, standard serial dilution method
[3] = tested on: Staphylococcus aureus MS 9610; assay: MIC, standard serial dilution method
[4] = tested on: Staphylococcus aureus No. 5 (MRSA); assay: MIC, standard serial dilution method
[5] = tested on: Staphylococcus aureus No. 17 (MRSA); assay: MIC, standard serial dilution method
[6] = tested on: Staphylococcus aureus MS 16526; assay: MIC, standard serial dilution method
[7] = tested on: Staphylococcus aureus TY-0428; assay: MIC, standard serial dilution method
[8] = tested on: Micrococcus luteus FDA 16; assay: MIC, standard serial dilution method
[9] = tested on: Micrococcus luteus IFO 3333; assay: MIC, standard serial dilution method
[10] = tested on: Micrococcus luteus PIC 1001; assay: MIC, standard serial dilution method
[11] = tested on: Bacillus anthracis
[12] = tested on: Bacillus subtilis NRRL B-558; assay: MIC, standard serial dilution method
[13] = tested on: Bacillus subtilis PCI 219; assay: MIC, standard serial dilution method
[14] = tested on: Bacillus cereus ATCC 10702; assay: MIC, standard serial dilution method
[15] = tested on: Corynebacterium bovis 1810; assay: MIC, standard serial dilution method
[16] = tested on: Escherichia coli NIHJ; assay: MIC, standard serial dilution method
[17] = tested on: Escherichia coli K-12; assay: MIC, standard serial dilution method
[18] = tested on: Escherichia coli BEM 11; assay: MIC, standard serial dilution method
[19] = tested on: Escherichia coli BEM 1121; assay: MIC, standard serial dilution method
[20] = tested on: Escherichia coli BE 1186; assay: MIC, standard serial dilution method
[21] = tested on: Shigella dysenteria JS 11910; assay: MIC, standard serial dilution method
[22] = tested on: Escherichia coli K-12 ML 1692; assay: MIC, standard serial dilution method
Description: (§1) The antibacterial activities of the amythiamicin amide derivative of the general formula (I) according to this invention are now concretely described. Compounds No. 1 to No. 11 according to this invention, which were respectively prepared in Examples 1 to 11 hereinafter given, were tested as the test compounds for their minimum inhibitory concentrations (MIC.) (μg/ml) against growth of a variety of test microorganisms by a standard serial dilution method. In the tests, the incubation medium used was Muller-Hinton agar medium and the incubation temperature was 37° C. The test results are shown as antibacterial spectra in the following Tables 2 and 3.

[23] = tested on: Shigella clexnerl JS 11749; assay: MIC, standard serial dilution method
Description: as §1

[24] = tested on: Shigella sonnei JS 11746; assay: MIC, standard serial dilution method
Description: as §1

[25] = tested on: Salmonella typhi T-63; assay: MIC, standard serial dilution method
[26] = tested on: Salmonella enteritidis 1891; assay: MIC, standard serial dilution method
[27] = tested on: Proteus vulgaris OX 19; assay: MIC, standard serial dilution method
[28] = tested on: Proteus mirabilis IFM OM-9; assay: MIC, standard serial dilution method
[29] = tested on: Providencia rettgeri GN 311; assay: MIC, standard serial dilution method
[30] = tested on: Providencia rettgeri GN 466; assay: MIC, standard serial dilution method
[31] = tested on: Serratia marcescens; assay: MIC, standard serial dilution method
[32] = tested on: Pseudomonas aeruginosa A3; assay: MIC, standard serial dilution method
[33] = tested on: Pseudomonas aeruginosa GN315; assay: MIC, standard serial dilution method
[34] = tested on: Klebsiella pneumonia PCI 602; assay: MIC, standard serial dilution method
[35] = tested on: Mycobacterium smegmatis ATCC 607; assay: MIC, standard serial dilution method
[36] = tested on: Candida albicans 3147; assay: MIC, standard serial dilution method
[37] = tested on: Staphylococcus aureus MS 15009/pMS 98; assay: MIC, standard serial dilution method
Description: as §1

[38] = tested on: Staphylococcus aureus MS 15009/pMS 99; assay: MIC, standard serial dilution method
Description: as §1

[39] = tested on: Staphylococcus aureus 209P JC-1; assay: MIC, standard serial dilution method
[40] = tested on: Staphylococcus aureus M 133; assay: MIC, standard serial dilution method
[41] = tested on: Staphylococcus aureus M 126; assay: MIC, standard serial dilution method
[42] = tested on: Staphylococcus aureus MS 15026; assay: MIC, standard serial dilution method
[43] = tested on: Staphylococcus aureus MS 15027; assay: MIC, standard serial dilution method
[44] = tested on: Staphylococcus epidermidis ATCC 14990; assay: MIC, standard serial dilution method
[45] = tested on: Micrococcus luteus ATCC 9341; assay: MIC, standard serial dilution method
[46] = tested on: Enterobacterium faecalis W-73; assay: MIC, standard serial dilution method
[47] = tested on: Escherichia coli NIHJ JC-2; assay: MIC, standard serial dilution method
[48] = tested on: Streptococcus pneumoniae IP 692; assay: MIC, standard serial dilution method
[49] = tested on: Streptococcus pneumoniae Type 1; assay: MIC, standard serial dilution method
[50] = tested on: Streptococcus pyogenes Cook; assay: MIC, standard serial dilution method
[51] = tested on: Branhamella catarrhalis W-0500; assay: MIC, standard serial dilution method
[52] = tested on: Branhamella catarrhalis W-0506; assay: MIC, standard serial dilution method
[53] = tested on: Haemophilus influenzae 9334; assay: MIC, standard serial dilution method
[54] = tested on: Haemophilus influenzae Type b; assay: MIC, standard serial dilution method
[55] = Klebsiella pneumonia PCI 602 (Table 3)

## CNC(=O)CC1NC(=O)c2csc(n2)-c2ccc(-c3nc(C(=O)NCCCN(C)CCCNCCc4ccc(Cl)cc4)cs3)nc2-c2csc(n2)-c2csc(n2)C(C(C)C)NC(=O)CNC(=O)c2csc(n2)C(C(C)C)NC(=O)c2nc1sc2C (stereo not drawn) [Compound No. 7]
[1]
  Minimum growth inhibitory concentrations (MIC.): > 100 µg/mL
[2]
  Minimum growth inhibitory concentrations (MIC.): > 100 µg/mL
[3]
  Minimum growth inhibitory concentrations (MIC.): > 100 µg/mL
[4]
  Minimum growth inhibitory concentrations (MIC.): > 100 µg/mL
[5]
  Minimum growth inhibitory concentrations (MIC.): > 100 µg/mL
[6]
  Minimum growth inhibitory concentrations (MIC.): > 100 µg/mL
[7]
  Minimum growth inhibitory concentrations (MIC.): > 100 µg/mL
[8]
  Minimum growth inhibitory concentrations (MIC.): 6.25 µg/mL
[9]
  Minimum growth inhibitory concentrations (MIC.): 12.5 µg/mL
[10]
  Minimum growth inhibitory concentrations (MIC.): 12.5 µg/mL
[11]
  Minimum growth inhibitory concentrations (MIC.): > 100 µg/mL
[12]
  Minimum growth inhibitory concentrations (MIC.): > 100 µg/mL
[13]
  Minimum growth inhibitory concentrations (MIC.): 50 µg/mL
[14]
  Minimum growth inhibitory concentrations (MIC.): > 100 µg/mL
[15]
  Minimum growth inhibitory concentrations (MIC.): 25 µg/mL
[16]
  Minimum growth inhibitory concentrations (MIC.): > 100 µg/mL
[17]
  Minimum growth inhibitory concentrations (MIC.): > 100 µg/mL
[18]
  Minimum growth inhibitory concentrations (MIC.): > 100 µg/mL
[19]
  Minimum growth inhibitory concentrations (MIC.): > 100 µg/mL
[20]
  Minimum growth inhibitory concentrations (MIC.): > 100 µg/mL
[21]
  Minimum growth inhibitory concentrations (MIC.): > 100 µg/mL
[22]
  Minimum growth inhibitory concentrations (MIC.): > 100 µg/mL
[23]
  Minimum growth inhibitory concentrations (MIC.): > 100 µg/mL
[24]
  Minimum growth inhibitory concentrations (MIC.): > 100 µg/mL
[25]
  Minimum growth inhibitory concentrations (MIC.): > 100 µg/mL
[26]
  Minimum growth inhibitory concentrations (MIC.): > 100 µg/mL
[27]
  Minimum growth inhibitory concentrations (MIC.): > 100 µg/mL
[28]
  Minimum growth inhibitory concentrations (MIC.): > 100 µg/mL
[29]
  Minimum growth inhibitory concentrations (MIC.): > 100 µg/mL
[30]
  Minimum growth inhibitory concentrations (MIC.): > 100 µg/mL
[31]
  Minimum growth inhibitory concentrations (MIC.): > 100 µg/mL
[32]
  Minimum growth inhibitory concentrations (MIC.): > 100 µg/mL
[33]
  Minimum growth inhibitory concentrations (MIC.): > 100 µg/mL
[34]; Klebsiella pneumonia PCI 602 (Table 2)
  Minimum growth inhibitory concentrations (MIC.): > 100 µg/mL
[35]
  Minimum growth inhibitory concentrations (MIC.): > 100 µg/mL
[36]
  Minimum growth inhibitory concentrations (MIC.): > 100 µg/mL

## CCCCNC(=O)c1csc(-c2ccc3c(n2)-c2csc(n2)-c2csc(n2)C(C(C)C)NC(=O)CNC(=O)c2csc(n2)C(C(C)C)NC(=O)c2nc(sc2C)C(CC(=O)NC)NC(=O)c2csc-3n2)n1 (stereo not drawn) [Compound No. 8]
[37]
  Minimum growth inhibitory concentrations (MIC.): > 100 µg/mL
[38]
  Minimum growth inhibitory concentrations (MIC.): > 100 µg/mL
[34]; [55]
  Minimum growth inhibitory concentrations (MIC.): > 100 µg/mL
[39]
  Minimum growth inhibitory concentrations (MIC.): > 100 µg/mL
[40]
  Minimum growth inhibitory concentrations (MIC.): > 100 µg/mL
[41]
  Minimum growth inhibitory concentrations (MIC.): > 100 µg/mL
[42]
  Minimum growth inhibitory concentrations (MIC.): > 100 µg/mL
[43]
  Minimum growth inhibitory concentrations (MIC.): > 100 µg/mL
[44]
  Minimum growth inhibitory concentrations (MIC.): > 100 µg/mL
[45]
  Minimum growth inhibitory concentrations (MIC.): 1.56 µg/mL
[46]
  Minimum growth inhibitory concentrations (MIC.): > 100 µg/mL
[47]
  Minimum growth inhibitory concentrations (MIC.): > 100 µg/mL
[48]
  Minimum growth inhibitory concentrations (MIC.): > 100 µg/mL
[49]
  Minimum growth inhibitory concentrations (MIC.): > 100 µg/mL
[50]
  Minimum growth inhibitory concentrations (MIC.): > 100 µg/mL
[51]
  Minimum growth inhibitory concentrations (MIC.): > 100 µg/mL
[52]
  Minimum growth inhibitory concentrations (MIC.): > 100 µg/mL
[53]
  Minimum growth inhibitory concentrations (MIC.): > 100 µg/mL
[54]
  Minimum growth inhibitory concentrations (MIC.): > 100 µg/mL

## CNC(=O)CC1NC(=O)c2csc(n2)-c2ccc(-c3nc(C(=O)NCCCO)cs3)nc2-c2csc(n2)-c2csc(n2)C(C(C)C)NC(=O)CNC(=O)c2csc(n2)C(C(C)C)NC(=O)c2nc1sc2C (stereo not drawn) [Compound No. 9]
[37]
  Minimum growth inhibitory concentrations (MIC.): 0.39 µg/mL
[38]
  Minimum growth inhibitory concentrations (MIC.): 0.39 µg/mL
[34]; [55]
  Minimum growth inhibitory concentrations (MIC.): > 100 µg/mL
[39]
  Minimum growth inhibitory concentrations (MIC.): 0.39 µg/mL
[40]
  Minimum growth inhibitory concentrations (MIC.): 0.39 µg/mL
[41]
  Minimum growth inhibitory concentrations (MIC.): 0.39 µg/mL
[42]
  Minimum growth inhibitory concentrations (MIC.): 0.39 µg/mL
[43]
  Minimum growth inhibitory concentrations (MIC.): 0.39 µg/mL
[44]
  Minimum growth inhibitory concentrations (MIC.): 0.78 µg/mL
[45]
  Minimum growth inhibitory concentrations (MIC.): 0.20 µg/mL
[46]
  Minimum growth inhibitory concentrations (MIC.): 0.39 µg/mL
[47]
  Minimum growth inhibitory concentrations (MIC.): > 100 µg/mL
[48]
  Minimum growth inhibitory concentrations (MIC.): > 100 µg/mL
[49]
  Minimum growth inhibitory concentrations (MIC.): > 100 µg/mL
[50]
  Minimum growth inhibitory concentrations (MIC.): > 100 µg/mL
[51]
  Minimum growth inhibitory concentrations (MIC.): > 100 µg/mL
[52]
  Minimum growth inhibitory concentrations (MIC.): > 100 µg/mL
[53]
  Minimum growth inhibitory concentrations (MIC.): > 100 µg/mL
[54]
  Minimum growth inhibitory concentrations (MIC.): > 100 µg/mL

## CNC(=O)CC1NC(=O)c2csc(n2)-c2ccc(-c3nc(C(=O)N[C@@H](CCCNC(=N)N)C(=O)O)cs3)nc2-c2csc(n2)-c2csc(n2)C(C(C)C)NC(=O)CNC(=O)c2csc(n2)C(C(C)C)NC(=O)c2nc1sc2C (stereo partly drawn) [Compound No. 10]
[37]
  Minimum growth inhibitory concentrations (MIC.): > 100 µg/mL
[38]
  Minimum growth inhibitory concentrations (MIC.): > 100 µg/mL
[34]; [55]
  Minimum growth inhibitory concentrations (MIC.): > 100 µg/mL
[39]
  Minimum growth inhibitory concentrations (MIC.): > 100 µg/mL
[40]
  Minimum growth inhibitory concentrations (MIC.): > 100 µg/mL
[41]
  Minimum growth inhibitory concentrations (MIC.): > 100 µg/mL
[42]
  Minimum growth inhibitory concentrations (MIC.): > 100 µg/mL
[43]
  Minimum growth inhibitory concentrations (MIC.): > 100 µg/mL
[44]
  Minimum growth inhibitory concentrations (MIC.): > 100 µg/mL
[45]
  Minimum growth inhibitory concentrations (MIC.): > 100 µg/mL
[46]
  Minimum growth inhibitory concentrations (MIC.): > 100 µg/mL
[47]
  Minimum growth inhibitory concentrations (MIC.): > 100 µg/mL
[48]
  Minimum growth inhibitory concentrations (MIC.): > 100 µg/mL
[49]
  Minimum growth inhibitory concentrations (MIC.): > 100 µg/mL
[50]
  Minimum growth inhibitory concentrations (MIC.): > 100 µg/mL
[51]
  Minimum growth inhibitory concentrations (MIC.): > 100 µg/mL
[52]
  Minimum growth inhibitory concentrations (MIC.): > 100 µg/mL
[53]
  Minimum growth inhibitory concentrations (MIC.): > 100 µg/mL
[54]
  Minimum growth inhibitory concentrations (MIC.): > 100 µg/mL
